Results published in patent publication US20210360924A1, “PLANT OR SEED COATING” (University of Southampton, priority 2017, published 2021).
pEC50: −log10 of the molar value. “Also recorded” adds a separate entry of the source.

Legend:
[1] = tested on: G. pallida J2s; assay: G. pallida stylet thrusting assay; format: in vivo, Globodera pallida; conditions: for stimulation of stylet thrusting by the compound itself: J2s in compound alone; for exposure time at which maximal stylet response was seen / maximally effective concentration for stylet thrusting / effect on S-shaped posture and reduced movement induced by fluoxetine: in vivo; for effect on stylet response to fluoxetine / effect on stylet response to exogenous serotonin: 24 h presoak; for effect on stylet behaviour: concentrations up to 10 mM (data not shown)
Experimental: Stylet thrusting assays were conducted in 20 mM HEPES buffered ddH2O, with pH adjusted to 7.4 with NaOH. J2s were pipetted into 3 ml of the test solutions in 30 mm petri dishes and the number of stylet thrusts per minute was counted at various time points as stated in figure legends. A single movement of the stylet knob forwards and then backwards to its original position was counted as one stylet thrust. Control assays were conducted in the presence of either 20 mM HEPES alone or 20 mM HEPES with drug vehicle, as indicated in figure legends. All assays were conducted at room temperature (20-22° C.). All drug solutions were made up on the day of use. Each solution contained 0.01% bovine serum albumin to prevent worms from sticking to the Petri dish. Reserpine was dissolved in 100% acetone and then 1 in 200 dilution was made using Hepes buffer (pH 7.4). […] Final concentration 50 μM reserpine.
For experiments in which J2s were pre-treated with reserpine phosphate or CPA, the worms were pre-soaked in the drug solutions for 24 hours.

[2] = tested on: C. elegans; assay: Pharyngeal pumping of intact C. elegans off food with fluoxetine; format: in vivo, Caenorhabditis elegans
Experimental: (§1) Experiments were performed on one day old age synchronised worms by picking L4 stage a day before the assay. Due to the translucent nature of the worm, pharyngeal pumping may be scored in the intact animals by counting the movements of the grinder in the terminal bulb: one complete up and down motion is counted as a single pharyngeal pump. The number of pharyngeal pumps was counted on E. coli OP50 in N2, in the mutants tph-1 (mg280), ser-7 (tm1325), cat-1 (ok411) and in mutants with ectopic expression of C. elegans (ce) or G. pallida (ppn) tph-1, ser-7 or cat-1 in all of the neurons (Psnb-1 promoter).
To test the effects of fluoxetine one day old C. elegans for N2, cat-1 (ok411) and cat-1 (ok411) with ectopic expression of C. elegans (ce) or G. pallida (Gpa) cat-1 were placed onto unseeded NGM plates containing fluoxetine and the number of pharyngeal pumps per min was scored after 1 h and 18 h.

[3] = tested on: G. pallida J2s; assay: Root invasion assay on potato hairy root cultures; format: in vivo, Globodera pallida; conditions: J2s pre-incubated 24 h with 100 μM compound
Experimental: J2s of G. pallida were first sterilised with 0.1% chlorhexidine digluconate, 0.5 mg/ml CTAB for 25 mins and washed three times with sterile 0.01% Tween-20. The J2s were then incubated with gentle agitation for 24 hours in water, 100 μM reserpine phosphate, 100 μM methiothepin, 100 μM CPA or 2 mM fluoxetine prior to inoculation of potato hairy root cultures with 25 J2s per infection point and 3 infection points per root system. Hairy root cultures were generated using Agrobacterium rhizogenes R1000 and multiplied. Individual root systems of equivalent size growing on 9 cm plates containing Murashige and Skoog basal medium (Duchefa, Suffolk, UK) with 2% sucrose were selected for inoculation. Nine to 11 replicate plates were used for each treatment or control. Roots were stained with acid fuchsin 13 days after infection and the number of nematodes in each root system counted. Each complete invasion assay was carried out on two separate occasions.

[4] = tested on: C. elegans TPH-1; assay: Pharyngeal pumping of C. elegans on food with CPA; format: in vivo
Experimental: as §1
(§2) To test the effects of CPA (4-chloro-DL-phenylalanine methyl ester hydrochloride) on pharyngeal pumping one day old adult C. elegans for N2, tph-1 (mg280) and tph-1-1 (mg280) with ectopic expression of C. elegans (ce) or G. pallida (Gpa) tph-1 were placed onto E. coli OP50 containing CPA on NGM plates and the number of pharyngeal pumps on food per min was scored after 2 and 18 hours.

[5] = tested on: G. pallida TPH-1; assay: Pharyngeal pumping on food with CPA, tph-1 (mg280) expressing G. pallida tph-1; format: in vivo, Globodera pallida; conditions: tph-1 mutant expressing G. pallida tph-1
Experimental: as §1, §2

[6] = molecular target: T1, C. elegans SER-7 (Caenorhabditis elegans, UniProt Q22895); assay: Cut head pharyngeal pumping assay
T1 sequence (Q22895 1-435): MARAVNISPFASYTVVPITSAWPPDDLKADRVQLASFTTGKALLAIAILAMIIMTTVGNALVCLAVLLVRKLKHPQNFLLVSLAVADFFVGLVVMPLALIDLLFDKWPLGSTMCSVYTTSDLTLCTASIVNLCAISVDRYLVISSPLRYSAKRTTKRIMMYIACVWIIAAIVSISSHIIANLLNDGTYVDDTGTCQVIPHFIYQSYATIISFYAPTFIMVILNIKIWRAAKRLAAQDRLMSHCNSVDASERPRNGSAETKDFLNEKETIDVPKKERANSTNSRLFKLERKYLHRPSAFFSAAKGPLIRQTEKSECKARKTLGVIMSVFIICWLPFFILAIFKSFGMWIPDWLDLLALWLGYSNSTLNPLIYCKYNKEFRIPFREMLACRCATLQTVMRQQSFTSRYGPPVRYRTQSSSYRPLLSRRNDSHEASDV
Experimental: Additionally, an intact pharynx containing a terminal bulb was dissected from the rest of the worm with a razor blade. The pharyngeal preparation was placed into 3 ml of Dent's saline (with 0.1% BSA and the drugs 5-HT or methiothepin) in a 25 mm Petri dish. Pharyngeal pumps were scored visually, as for the intact worms, for 1 min. For controls, the pharyngeal pumping was scored in Dent's saline (0.1% BSA) without drugs with appropriate vehicle controls.

[7] = tested on: G. pallida J2s; assay: G. pallida dispersal (motility) assay on agar arena; format: in vivo, Globodera pallida; conditions: pre-incubation with 50 μM for 18 h
Experimental: Dispersal assays were performed on 5 cm plates filled with 10 ml of 2% agarose. […] For the reserpine assays worms were pre-soaked in the compound for 18 h. On the day of the assay 100 μl of potato root diffusate (PRD), ddH2O or drug solvents were spread onto the plates and the plates were sealed with the parafilm. The grid with six equal concentric circles was placed under the assay plates and the centre was marked with a dot. Around 50-100 G. pallida J2s or C. elegans L2 s were pipetted with 5 μl of ddH2O onto the centre (origin), the plate was re-sealed and the total number of worms was counted as soon as the liquid had absorbed. The number of J2s in each concentric circle was counted after 1, 2 and 24 hours.

[8] = tested on: G. pallida; assay: Hatching of J2s from cysts/eggs; set-up: species or system Globodera pallida; conditions: in vivo
[9] = molecular target: G. pallida SER-7 (Globodera pallida, UniProt A0A183BS20, DEL280-286/G462A/H333Q/S454N/S6T/Y334H); assay: Cut head pharyngeal pumping assay, ser-7 (tm1325) expressing Gpa-ser-7; conditions: 100 nM; transgenics expressing G. pallida ser-7; 100 μM serotonin
[10] = tested on: C. elegans MOD-1; assay: Thrashing paralysis assay (serotonin-induced paralysis), wild type; format: in vivo, Caenorhabditis elegans; conditions: wild type worms; 10 μM methiothepin; 33 mM serotonin
Experimental: (§3) For the methiothepin treatment group, 10 μM methiothepin was included in the wells of the microtitre plate. Wild type (N2), mod-1 (ok103), and the transgenic strains expressing gpa-mod-1 in mod-1 (ok103) were tested.

[11] = tested on: G. pallida MOD-1; assay: Thrashing paralysis assay, mod-1 (ok103) expressing G. pallida mod-1; format: in vivo, Globodera pallida; conditions: worms expressing G. pallida mod-1; 10 μM methiothepin; 33 mM serotonin
Experimental: as §3

Chain of G. pallida SER-7 (A0A183BS20 whole entry, stated change not applied): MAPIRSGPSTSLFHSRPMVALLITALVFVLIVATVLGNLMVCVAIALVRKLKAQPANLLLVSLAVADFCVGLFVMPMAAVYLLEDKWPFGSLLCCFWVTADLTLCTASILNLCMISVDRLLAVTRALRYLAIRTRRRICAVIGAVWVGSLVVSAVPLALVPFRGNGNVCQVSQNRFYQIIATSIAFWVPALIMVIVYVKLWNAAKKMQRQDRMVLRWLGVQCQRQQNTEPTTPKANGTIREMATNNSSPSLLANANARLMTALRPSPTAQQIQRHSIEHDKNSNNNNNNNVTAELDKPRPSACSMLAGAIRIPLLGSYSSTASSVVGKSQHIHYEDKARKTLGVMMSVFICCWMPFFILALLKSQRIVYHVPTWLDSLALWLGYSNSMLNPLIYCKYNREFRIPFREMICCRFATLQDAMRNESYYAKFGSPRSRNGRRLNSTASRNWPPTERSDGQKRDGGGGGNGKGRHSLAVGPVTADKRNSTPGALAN

CNCCC(Oc1ccc(C(F)(F)F)cc1)c1ccccc1 (stereo not drawn) [fluoxetine]
stimulation of stylet thrusting by the compound itself [1]: time-dependent and concentration-dependent stimulation; also recorded: stimulatory effects | exposure time at which maximal stylet response was seen [1]: 30 min | maximally effective concentration for stylet thrusting [1]: 2 mM | shape of stylet concentration response curve ([1]; response after 1 h): bell-shaped | stimulation of pharyngeal pumping in the absence of food ([2]; 1 mM and 2 mM, or longer exposure at 500 μM): did not cause a stimulation | stimulation of pharyngeal pumping in the absence of food ([2]; C. elegans cat-1 mutant): not observed | exposure time of maximal stimulation of pharyngeal pumping ([2]; absence of food): 1 h | low dose stimulation of pharyngeal pumping ([2]; cat-1 mutant expressing ppn-cat-1 (G. pallida)): restored | low dose stimulation of pharyngeal pumping ([2]; cat-1 mutant expressing wild-type C. elegans cat-1): restored | stimulation of pharyngeal pumping in the absence of food ([2]; wild type, 5 to 500 μM): concentration-dependent

COC(=O)C(N)Cc1ccc(Cl)cc1.Cl (racemic) [CPA, 4-chloro-DL-phenylalanine methyl ester hydrochloride]
number of nematodes present in the roots 13 days after inoculation (root invasion) [3]: significantly reduced | stylet thrusting in response to fluoxetine ([1]; 10 mM CPA overnight, 2 mM fluoxetine 30 min): reduced stylet thrusting | stylet thrusting in response to serotonin ([1]; 10 mM CPA overnight, 10 mM serotonin 30 min): maintained their response | inhibition of pharyngeal pumping ([4]; tph-1 mutant): did not cause any further reduction | ability to inhibit pharyngeal pumping ([4]; tph-1 mutant expressing C. elegans tph-1): restored | inhibition of pharyngeal pumping ([4]; wild type C. elegans, CPA 10 mM): significantly inhibited | ability to inhibit pharyngeal pumping [5]: restored

NCCc1c[nH]c2ccc(O)cc12 [serotonin, 5-hydroxytryptamine]
stimulation of stylet thrusting by the compound itself [1]: time-dependent and concentration-dependent stimulation | exposure time at which maximal stylet response was seen [1]: 30 min | maximally effective concentration for stylet thrusting [1]: 10 mM | concentration above which stylet concentration-response curve reached maximum plateau ([1]; response after 1 h): above 2 mM | pEC50 ([6]; EC50, activation of pharyngeal pumping, transgenic psnb-1::Ce-ser-7a, cut head, 95% confidence 457 nM to 1.34 μM): 6.11 | pEC50 ([6]; EC50, increase in pharyngeal pumping, wild type worms, cut head, 95% confidence 164 nM to 304 nM): 6.65 | pharyngeal pumping response ([6]; ser-7 (tm1325) mutants, cut head, up to 100 μM): did not respond

CN(C)CCCN1c2ccccc2CCc2ccccc21 [imipramine]
stimulation of stylet thrusting by the compound itself [1]: stimulatory effects

COC(=O)[C@H]1[C@H]2C[C@@H]3c4[nH]c5cc(OC)ccc5c4CCN3C[C@H]2C[C@@H](OC(=O)c2cc(OC)c(OC)c(OC)c2)[C@@H]1OC [reserpine, (3β,16β,17α,18β,20α)-11,17-Dimethoxy-18-[(3,4,5-trimethoxybenzoyl)oxy]yohimban-16-carboxylic acid methyl ester]
number of nematodes present in the roots 13 days after inoculation (root invasion) [3]: significantly decreased | dispersal from origin of agar arena (motility) [7]: significant reduction | block of stimulatory effect of fluoxetine on stylet ([1]; 5 μM, 24 h soak, 2 mM fluoxetine): near-complete block | recovery of fluoxetine-induced stylet response after washing ([1]; 50 μM for 24 h, then water wash up to 22 hours): No recovery | block of stimulatory effect of fluoxetine on stylet ([1]; 50 μM, 24 h soak, 2 mM fluoxetine): near-complete block | exposure time at which reduction of fluoxetine-stimulated stylet activity was evident ([1]; 50 μM, 2 mM fluoxetine): 4 h | exposure time to full block of fluoxetine-stimulated stylet activity ([1]; 50 μM, 2 mM fluoxetine): 8 h | exposure time to full inhibition of fluoxetine-stimulated stylet activity ([1]; 50 μM, 2 mM fluoxetine 30 mins (FIG. 14B)): 8 h | effect on stylet response to fluoxetine ([1]; 2 mM fluoxetine 30 min): concentration-dependent inhibition | effect on stylet response to fluoxetine ([1]; 2 mM fluoxetine 30 min, listed as Reserpine): potently blocked | effect on stylet response to exogenous serotonin ([1]; 10 mM serotonin 30 min): no effect | effect on stylet response to exogenous serotonin ([1]; 10 mM serotonin 30 min, listed as Reserpine): but not the response to serotonin | lowest concentration giving significant reduction of fluoxetine-induced stylet activity ([1]; 24 h soak, 2 mM fluoxetine 30 min): 5 nM | effect on S-shaped posture and reduced movement induced by fluoxetine [1]: blocked | independent stimulatory effect on stylet activity ([1]; reserpine alone): no independent stimulatory effect

NCCc1ccc(O)cc1 [tyramine]
effect on stylet behaviour [1]: no effect

NCC(O)c1ccc(O)cc1 (stereo not drawn) [octopamine]
effect on stylet behaviour [1]: no effect

NCCc1ccc(O)c(O)c1 [Dopamine]
effect on stylet behaviour [1]: no effect

CSc1ccc2c(c1)C(N1CCN(C)CC1)Cc1ccccc1S2 (stereo not drawn) [methiothepin]
number of nematodes present in the roots 13 days after inoculation (root invasion) [3]: blocked | antagonism of serotonin-induced stylet thrusting ([1]; G. pallida J2s): potent antagonist | effect on S-shaped posture and reduced movement induced by fluoxetine [1]: blocked | emergence of J2s from eggs (hatching) [8]: potently inhibited | inhibition of stimulatory effect of serotonin on pumping ([6]; 100 nM, transgenics expressing C. elegans ser-7, 100 μM serotonin): around 50% | inhibition of stimulatory effect of serotonin on pumping [9]: around 50% | effect on mod-1 dependent serotonin-induced paralysis [10]: blocked | effect on mod-1 dependent serotonin-induced paralysis [11]: blocked
